According to US6734211B1, “Compositions and methods for promoting nerve regeneration” (Oregon Health & Sciences University, priority 1999, dated 2004):

Tests used:
[1] = test system: SH-SY5Y human neuroblastoma cells; assay: Neurite outgrowth of SH-SY5Y cells in the presence of NGF; type: cell-based; settings: for Mean Length of Top 50% of Neuritic Processes: 168 hours; for neurite outgrowth, effect of the compound: with NGF, concentration dependence
Procedure: This Example illustrates that FK506 and geldanamycin promote nerve regeneration by a common mechanism. SH-SY5Y human neuroblastoma cells were maintained in DMEM medium (GIBCO) supplemented with 10% fetal calf serum (SIGMA), 50 IU/mL penicillin, and […] streptomycin (GIBCO) at 37° C. in 7% CO2. Cells were plated in six-well plates at 1×10^6 cells/well and treated with […] aphidicolin (SIGMA). At five days, cells were washed, treated with nerve growth factor (NGF) (Boehringer Mannheim, Indianapolis, Ind.) at 10 ng/mL ([…]) (Calbiochem-Novabiochem Int'l., La Jolla, Calif.) and/or geldanamycin (0.1, 1, and 10 nM) (Calbiochem-Novabiochem, La Jolla, Calif.) dissolved in the DMEM medium. Media was changed at 96 hours and replaced with fresh media containing the compounds (NGF plus FK506 and/or geldanamycin) for an additional 72 hours (total time, 168 hours). The top 50% of axonal lengths were selected for statistical analysis. All experiments were run in duplicate wells and repeated at least twice for reproducibility.
(§1) For analysis of neurite process length of cells, 20 fields per well were randomly photographed at 72 and 168 hours. Neurite lengths were measured on photographic prints using a Houston Instrument HI-PAD digitizing tablet connected to an IBM XT computer with appropriate software (Bioquant IV, R&M Biometrics, Nashville, Tenn.); only those processes greater than two times the cell body length were measured. Data from identically treated wells were not different and were therefore combined. […] Histograms were compared using a Mann-Whitney U test, which makes no assumptions about the shape of the distribution.
Neuroblastoma SH-SY5Y cells were used to examine human neurite outgrowth in vitro and to explore which neuroimmunophilin mediates the effect.

[2] = test system: hippocampal neurons of FKBP-12 knockout mice; assay: Axonal length in primary neuronal hippocampal cultures from FKBP-12 knockout mice; type: cell-based
Procedure: (§2) FKBP-12 knockout mice (Shou, et al., Nature 391:489, 1998) were used to test whether FKBP-12 is necessary for FK506's ability to increase nerve elongation. Such mice usually die from severe cardiomyopathy between embryonic day 14.5 (E14.5) and birth, consistent with the known association between FKBP-12 and calcium release channels. […] Primary neuronal hippocampal cultures were prepared from E18.5 homozygote FKBP-12 knockout and wild-type mice.

[3] = test system: hippocampal neurons of wild-type mice; assay: Axonal length in primary neuronal hippocampal cultures from wild-type mice; type: cell-based
Procedure: as §2

sciatic nerve = settings: rat, following a sciatic nerve crush lesion; cited from earlier work
hippocampal cells = assay: Neurite outgrowth of hippocampal cells after 72 hours; type: cell-based
Procedure: as §1
Utilizing the in vitro assay described in Example 2, the effect of radicicol on neurite outgrowth was investigated. Hippocampal cells were treated with radicicol at a concentration of 0.1 ng/mL and at a concentration of 10 ng/mL. The neurite outgrowth for radicicol treated cells was compared to the outgrowth for untreated cells and for cells treated with 10 ng/mL of NGF.
Utilizing the in vitro assay described in Example 2, the effect of heat alone or in combination with various compounds on neurite outgrowth was investigated. […] FIG. 5 also illustrates that a combination of heat treatment and treatment with both NGF, and Hsp-90 antibodies is not as effective as the combination of heat and NGF treatment. […]

[4] = geldanamycin 10 nM co-treatment

C=CC[C@@H]1/C=C(\C)C[C@H](C)C[C@H](OC)[C@H]2O[C@@](O)(C(=O)C(=O)N3CCCC[C@H]3C(=O)O[C@H](/C(C)=C/[C@@H]3CC[C@@H](O)[C@H](OC)C3)[C@H](C)[C@@H](O)CC1=O)[C@H](C)C[C@@H]2OC [FK506]
Mean Length of Top 50% of Neuritic Processes ([1]; FK506 10 nM + NGF 10 ng/mL): 156 µm | neurite outgrowth (cumulative histograms of neurite lengths) ([1]; FK506 10 pM-10 nM): increases neurite outgrowth | neurite outgrowth (cumulative histograms of neurite lengths) ([1]; FK506 100 nM): less effective | neurite outgrowth (cumulative histograms of neurite lengths) ([1]; FK506 1000 nM or greater): neurite outgrowth was inhibited | neurite outgrowth, effect of the compound [1]: stimulate neurite outgrowth in a concentration dependent manner | Mean axonal lengths of hippocampal neurons ([2]; FK506-treated cultures, FKBP-12 knockout, mean±S.E.M.): 264±18.2 | increase over non-treated values ([2]; FKBP-12 knockout cells): 30% | Mean axonal lengths of hippocampal neurons ([3]; FK506-treated cultures, wild-type, mean±S.E.M.): 276±11.1 | increase over non-treated values ([3]; wild-type cells): 26% | functional recovery and axonal regeneration (sciatic nerve): speed functional recovery and axonal regeneration in the rat in a dose-dependent manner

COC1=C2C[C@@H](C)C[C@H](OC)[C@H](O)[C@@H](C)/C=C(\C)[C@H](OC(N)=O)[C@@H](OC)/C=C\C=C(/C)C(=O)NC(=CC1=O)C2=O [Geldanamycin, geldanamycin]
Mean Length of Top 50% of Neuritic Processes ([1]; geldanamycin 1 nM + NGF 10 ng/mL): 128 µm | Mean Length of Top 50% of Neuritic Processes ([1]; geldanamycin 10 nM + NGF 10 ng/mL): 110 µm | effect on neurite outgrowth promotion by FK506, dexamethasone or β-estradiol ([1]; geldanamycin 0.1 nM co-treatment): less effective in inhibiting the neurite outgrowth-promoting effect of all these compounds | effect on neurite outgrowth promotion by FK506, dexamethasone or β-estradiol [1, 4]: inhibited neurite outgrowth promotion by FK506 , dexamethasone or β-estradiol | effect on neurite outgrowth promotion by FKBP-52 antibody [1, 4]: enhanced the neurite outgrowth-promoting effect of the FKBP-52 antibody | neurite outgrowth ([1]; geldanamycin 0.1-10 nM alone): increased neurite outgrowth in a concentration-dependent fashion | neurite outgrowth, effect of the compound [1]: stimulate neurite outgrowth in a concentration dependent manner

COc1cccc(-c2cc(=O)c3ccccc3o2)c1N [PD 098059]
effect on neurite outgrowth by NGF and FK-506 (FIG. 6) (hippocampal cells; 2 concentrations): blocks neurite outgrowth by NGF and FK-506 in a concentration dependent fashion | effect on neurite outgrowth by radicicol (FIG. 7) (hippocampal cells; 2 concentrations): blocks the action of radicicol in a concentration dependent fashion | effect on neurite outgrowth by radicicol (FIG. 7) (hippocampal cells; highest concentration): almost completely blocks activity

[Na+].[Na+].[O]=[Mo](=[O])([O-])[O-] [molybdate, sodium molybdate]
effect on neurite outgrowth promotion by FK506 ([1]; molybdate 20 mM): reduced the neurite outgrowth promotion elicited by FK506 | effect on neurite outgrowth promotion by FKBP-52 antibody ([1]; molybdate 20 mM): inhibited the neurite outgrowth-promoting effects of FKBP-52 antibody | effect on neurite outgrowth promotion by β-estradiol and geldanamycin ([1]; molybdate 20 mM): completely [Mann-Whitney U test (α=0.05)] inhibited the neurite outgrowth-promoting effect of β-estradiol and geldanamycin | neurite outgrowth-promoting effect of molybdate in the presence of dexamethasone ([1]; molybdate 20 mM): significantly [Mann-Whitney U test (α=0.05)] reduced compared to molybdate alone | neurite outgrowth ([1]; molybdate 20 mM itself): agonist effect on neurite outgrowth

C[C@@H]1C[C@H]2O[C@@H]2/C=C\C=C\C(=O)Cc2c(Cl)c(O)cc(O)c2C(=O)O1 [radicicol]
neurite outgrowth (cumulative histogram, FIG. 3) (hippocampal cells; radicicol 0.1 ng/mL and 10 ng/mL vs NGF 10 ng/mL): more effective than NGF alone in stimulating outgrowth

C[C@]12CC[C@@H]3c4ccc(O)cc4CC[C@H]3[C@@H]1CC[C@@H]2O [β-estradiol]
neurite outgrowth compared with dexamethasone ([1]; 50 nM each): greater positive effect on neurite outgrowth than dexamethasone (50 nM) | neurite outgrowth, effect of the compound [1]: significantly increased neurite outgrowth in SH-SY5Y cells in a concentration-dependent manner

B1: NGF: nerve growth factor (Boehringer Mannheim) (protein, UniProt P01139 122-241, looked up)
Beta-nerve growth factor: SSTHPVFHMGEFSVCDSVSVWVGDKTTATDIKGKEVTVLAEVNINNSVFRQYFFETKCRASNPVESGCRGIDSKHWNSYCTTTHTFVKALTTDEKQAAWRFIRIDTACVCVLSRKATRRG
modifications: Beta-nerve growth factor
Mean Length of Top 50% of Neuritic Processes ([1]; NGF 10 ng/mL alone): 108 µm | neurite outgrowth (cumulative histogram, FIG. 4) (hippocampal cells; NGF in combination with heat): more effective than either heat or NGF treatment alone in stimulating neurite outgrowth
